Measurements as given in US8168651B2, “Protein kinase modulators” (Cylene Pharmaceuticals, Inc., priority 2008, dated 2012).

Key:
Assay in all cases: Standardized radiometric kinase assays, percentage of activity at 0.5 μM;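 note: Read-out is ³³P-labelled substrate protein phosphorylated by each kinase, captured on filters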
[1] = target: each individual kinase of the panel (Homo sapiens, UniProt Q96RG2)
[2] = target: each individual kinase of the panel (Homo sapiens, UniProt Q16513)
[3] = target: each individual kinase of the panel (Homo sapiens, UniProt Q9HC98)
[4] = target: each individual kinase of the panel (Homo sapiens, UniProt Q16620)
each individual kinase of the panel (Homo sapiens, UniProt Q16620), sequence (Q16620 32-822 limits assumed): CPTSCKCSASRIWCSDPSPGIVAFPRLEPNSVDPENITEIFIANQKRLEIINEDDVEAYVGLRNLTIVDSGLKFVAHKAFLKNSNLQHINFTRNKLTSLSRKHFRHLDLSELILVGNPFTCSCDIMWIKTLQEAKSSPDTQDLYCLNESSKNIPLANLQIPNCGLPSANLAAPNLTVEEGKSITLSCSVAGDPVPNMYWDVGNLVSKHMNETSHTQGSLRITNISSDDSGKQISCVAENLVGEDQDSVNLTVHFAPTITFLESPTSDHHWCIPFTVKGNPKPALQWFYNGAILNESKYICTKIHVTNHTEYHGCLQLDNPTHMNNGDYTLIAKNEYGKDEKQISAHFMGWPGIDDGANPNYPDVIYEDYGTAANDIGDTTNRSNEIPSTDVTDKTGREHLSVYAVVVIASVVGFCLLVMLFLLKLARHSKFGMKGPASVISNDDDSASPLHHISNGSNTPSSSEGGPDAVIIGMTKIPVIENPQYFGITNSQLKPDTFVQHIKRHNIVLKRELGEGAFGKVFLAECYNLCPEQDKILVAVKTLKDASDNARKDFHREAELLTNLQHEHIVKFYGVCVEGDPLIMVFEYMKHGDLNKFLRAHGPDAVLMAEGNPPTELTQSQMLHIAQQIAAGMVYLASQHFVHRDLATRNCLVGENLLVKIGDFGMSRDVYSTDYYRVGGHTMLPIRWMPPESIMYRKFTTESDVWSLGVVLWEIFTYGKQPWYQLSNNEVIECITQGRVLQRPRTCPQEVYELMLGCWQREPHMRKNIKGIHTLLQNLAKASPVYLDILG

[5] = target: each individual kinase of the panel (Homo sapiens, UniProt Q8TDX7)
[6] = target: each individual kinase of the panel (Homo sapiens, UniProt Q9Y5S2)
[7] = target: each individual kinase of the panel (Homo sapiens, UniProt Q86Z02)
[8] = target: each individual kinase of the panel (Homo sapiens, UniProt O00141)
[9] = target: each individual kinase of the panel (Homo sapiens, UniProt Q8N4C8)
[10] = target: each individual kinase of the panel (Homo sapiens, UniProt P29317)
each individual kinase of the panel (Homo sapiens, UniProt P29317), sequence (P29317 24-976 limits assumed): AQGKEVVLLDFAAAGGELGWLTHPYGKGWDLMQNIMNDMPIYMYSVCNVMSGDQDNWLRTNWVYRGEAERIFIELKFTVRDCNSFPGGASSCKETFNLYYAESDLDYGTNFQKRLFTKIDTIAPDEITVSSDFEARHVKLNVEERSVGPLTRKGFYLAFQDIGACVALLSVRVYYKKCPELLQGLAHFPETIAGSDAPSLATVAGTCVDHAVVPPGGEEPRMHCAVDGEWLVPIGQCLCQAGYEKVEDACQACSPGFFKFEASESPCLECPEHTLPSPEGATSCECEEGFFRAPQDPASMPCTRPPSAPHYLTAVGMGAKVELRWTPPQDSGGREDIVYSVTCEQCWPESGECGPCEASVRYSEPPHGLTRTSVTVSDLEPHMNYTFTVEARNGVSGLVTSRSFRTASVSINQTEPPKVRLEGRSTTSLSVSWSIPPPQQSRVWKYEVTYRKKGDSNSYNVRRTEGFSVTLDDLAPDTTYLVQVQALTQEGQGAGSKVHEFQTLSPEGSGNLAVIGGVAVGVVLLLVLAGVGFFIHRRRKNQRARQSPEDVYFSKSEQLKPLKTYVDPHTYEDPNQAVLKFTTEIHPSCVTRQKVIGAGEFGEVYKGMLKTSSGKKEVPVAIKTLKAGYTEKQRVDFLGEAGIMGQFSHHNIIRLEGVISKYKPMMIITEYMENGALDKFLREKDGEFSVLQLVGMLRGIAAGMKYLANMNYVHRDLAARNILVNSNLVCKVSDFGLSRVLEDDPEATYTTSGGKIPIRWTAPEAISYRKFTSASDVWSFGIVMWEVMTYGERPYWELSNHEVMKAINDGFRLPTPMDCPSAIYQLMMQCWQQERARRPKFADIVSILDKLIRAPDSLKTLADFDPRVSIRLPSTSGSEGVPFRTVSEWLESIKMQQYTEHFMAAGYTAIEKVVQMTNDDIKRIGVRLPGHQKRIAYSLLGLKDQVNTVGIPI

[11] = target: each individual kinase of the panel (Homo sapiens, UniProt P49761)
[12] = target: each individual kinase of the panel (Homo sapiens, UniProt Q8NG66)
[13] = target: each individual kinase of the panel (Homo sapiens, UniProt Q9UHD2)
[14] = target: each individual kinase of the panel (Homo sapiens, UniProt Q16566)
[15] = target: each individual kinase of the panel (Homo sapiens, UniProt Q9BXA7)
[16] = target: each individual kinase of the panel (Homo sapiens, UniProt Q13237)
each individual kinase of the panel (Homo sapiens, UniProt Q13237), sequence (Q13237 2-762 limits assumed): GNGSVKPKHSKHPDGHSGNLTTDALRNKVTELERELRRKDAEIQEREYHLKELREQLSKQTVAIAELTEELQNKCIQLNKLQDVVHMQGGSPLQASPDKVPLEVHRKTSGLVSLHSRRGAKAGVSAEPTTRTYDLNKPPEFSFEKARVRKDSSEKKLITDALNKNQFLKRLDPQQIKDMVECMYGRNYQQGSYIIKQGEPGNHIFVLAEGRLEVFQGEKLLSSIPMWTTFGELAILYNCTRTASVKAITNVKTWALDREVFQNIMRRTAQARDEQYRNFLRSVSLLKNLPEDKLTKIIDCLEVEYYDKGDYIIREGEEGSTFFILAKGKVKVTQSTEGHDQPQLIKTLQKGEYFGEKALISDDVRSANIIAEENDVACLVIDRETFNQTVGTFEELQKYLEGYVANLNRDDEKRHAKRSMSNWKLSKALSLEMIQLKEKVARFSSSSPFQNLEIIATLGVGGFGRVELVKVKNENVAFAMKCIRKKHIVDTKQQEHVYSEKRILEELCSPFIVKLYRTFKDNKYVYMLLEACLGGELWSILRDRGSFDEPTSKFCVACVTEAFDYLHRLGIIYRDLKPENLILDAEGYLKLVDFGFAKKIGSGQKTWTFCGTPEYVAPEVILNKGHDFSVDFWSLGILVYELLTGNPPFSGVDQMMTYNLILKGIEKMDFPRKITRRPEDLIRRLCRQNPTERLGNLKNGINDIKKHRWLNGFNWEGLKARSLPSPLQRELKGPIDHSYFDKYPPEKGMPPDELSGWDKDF

[17] = target: each individual kinase of the panel (Homo sapiens, UniProt Q5VT25)
[18] = target: each individual kinase of the panel (Homo sapiens, UniProt O96017)
[19] = target: each individual kinase of the panel (Homo sapiens, UniProt Q09013)
[20] = target: each individual kinase of the panel (Homo sapiens, UniProt Q86Y07)
[21] = target: each individual kinase of the panel (Homo sapiens, UniProt O15146)
each individual kinase of the panel (Homo sapiens, UniProt O15146), sequence (O15146 24-869 limits assumed): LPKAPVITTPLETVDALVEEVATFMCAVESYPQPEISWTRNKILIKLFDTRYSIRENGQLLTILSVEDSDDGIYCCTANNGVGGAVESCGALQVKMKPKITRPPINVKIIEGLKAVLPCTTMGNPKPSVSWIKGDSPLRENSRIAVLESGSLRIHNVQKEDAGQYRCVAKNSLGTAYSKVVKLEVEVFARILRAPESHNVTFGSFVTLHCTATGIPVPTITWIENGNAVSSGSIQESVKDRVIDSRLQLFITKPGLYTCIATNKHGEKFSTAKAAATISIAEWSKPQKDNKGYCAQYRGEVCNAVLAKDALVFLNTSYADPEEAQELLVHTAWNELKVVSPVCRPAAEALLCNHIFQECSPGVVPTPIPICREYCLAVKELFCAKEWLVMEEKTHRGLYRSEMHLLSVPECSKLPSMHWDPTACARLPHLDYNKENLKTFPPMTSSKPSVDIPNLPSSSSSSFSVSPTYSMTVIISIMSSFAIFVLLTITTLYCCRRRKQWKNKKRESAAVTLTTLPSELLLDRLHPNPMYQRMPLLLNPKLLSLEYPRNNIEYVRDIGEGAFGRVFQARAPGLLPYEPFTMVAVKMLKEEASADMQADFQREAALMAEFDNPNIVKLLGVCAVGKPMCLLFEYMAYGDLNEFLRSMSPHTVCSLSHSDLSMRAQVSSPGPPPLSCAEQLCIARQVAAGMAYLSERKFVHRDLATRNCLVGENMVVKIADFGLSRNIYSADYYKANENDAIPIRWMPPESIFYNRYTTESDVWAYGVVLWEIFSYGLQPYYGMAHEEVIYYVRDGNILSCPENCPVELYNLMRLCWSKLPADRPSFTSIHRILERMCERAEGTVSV

[22] = target: each individual kinase of the panel (Homo sapiens, UniProt O15264)
[23] = target: each individual kinase of the panel (Homo sapiens, UniProt O96013)
[24] = target: each individual kinase of the panel (Homo sapiens, UniProt Q9UBE8)
[25] = target: each individual kinase of the panel (Homo sapiens, UniProt O94806)
[26] = target: each individual kinase of the panel (Homo sapiens, UniProt P53355)
[27] = target: each individual kinase of the panel (Homo sapiens, UniProt Q02156)
[28] = target: each individual kinase of the panel (Homo sapiens, UniProt Q05513)
[29] = target: each individual kinase of the panel (Homo sapiens, UniProt O75582)
[30] = target: each individual kinase of the panel (Homo sapiens, UniProt P09769)
each individual kinase of the panel (Homo sapiens, UniProt P09769), sequence (P09769 2-529 limits assumed): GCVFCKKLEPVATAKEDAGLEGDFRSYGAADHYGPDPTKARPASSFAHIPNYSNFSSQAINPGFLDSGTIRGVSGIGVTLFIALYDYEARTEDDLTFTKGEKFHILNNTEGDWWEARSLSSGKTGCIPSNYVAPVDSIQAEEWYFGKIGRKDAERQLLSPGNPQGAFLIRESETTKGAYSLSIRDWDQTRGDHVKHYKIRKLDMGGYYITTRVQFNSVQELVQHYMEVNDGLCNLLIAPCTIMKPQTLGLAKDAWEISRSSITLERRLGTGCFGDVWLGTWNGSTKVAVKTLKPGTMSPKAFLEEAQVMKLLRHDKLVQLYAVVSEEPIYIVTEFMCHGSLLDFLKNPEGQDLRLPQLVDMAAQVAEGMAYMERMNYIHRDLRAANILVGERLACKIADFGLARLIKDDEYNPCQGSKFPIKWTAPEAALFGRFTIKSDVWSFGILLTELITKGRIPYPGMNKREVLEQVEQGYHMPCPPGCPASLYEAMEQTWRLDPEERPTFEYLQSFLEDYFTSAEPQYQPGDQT

[31] = target: each individual kinase of the panel (Homo sapiens, UniProt P11362, V561M)
each individual kinase of the panel (Homo sapiens, UniProt P11362, V561M), sequence (P11362 22-822 V561M limits assumed): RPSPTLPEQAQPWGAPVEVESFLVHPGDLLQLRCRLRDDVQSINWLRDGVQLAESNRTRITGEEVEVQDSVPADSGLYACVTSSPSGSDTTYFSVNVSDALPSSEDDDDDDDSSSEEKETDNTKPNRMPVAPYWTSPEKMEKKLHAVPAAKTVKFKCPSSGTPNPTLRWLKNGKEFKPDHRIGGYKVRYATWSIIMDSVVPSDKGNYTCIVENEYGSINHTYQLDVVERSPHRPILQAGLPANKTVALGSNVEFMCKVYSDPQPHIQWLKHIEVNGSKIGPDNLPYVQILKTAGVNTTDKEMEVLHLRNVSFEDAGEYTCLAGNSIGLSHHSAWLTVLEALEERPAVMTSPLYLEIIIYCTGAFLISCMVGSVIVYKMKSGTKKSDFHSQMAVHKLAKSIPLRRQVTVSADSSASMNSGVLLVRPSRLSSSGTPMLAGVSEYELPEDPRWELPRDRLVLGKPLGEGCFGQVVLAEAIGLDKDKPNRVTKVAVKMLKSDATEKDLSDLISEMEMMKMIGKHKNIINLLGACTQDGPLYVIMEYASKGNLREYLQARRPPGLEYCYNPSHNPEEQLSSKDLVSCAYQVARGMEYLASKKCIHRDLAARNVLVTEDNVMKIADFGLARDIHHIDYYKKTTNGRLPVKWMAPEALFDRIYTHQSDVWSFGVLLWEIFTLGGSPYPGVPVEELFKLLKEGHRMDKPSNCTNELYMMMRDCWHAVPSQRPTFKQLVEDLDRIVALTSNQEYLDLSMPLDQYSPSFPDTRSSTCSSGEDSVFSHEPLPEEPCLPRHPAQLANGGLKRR

- PASK percentage of activity [1]: 87%
- PRK2 percentage of activity [2]: 3%
- NEK6 percentage of activity [3]: −3%
- TRKB percentage of activity [4]: 10%
- NEK7 percentage of activity [5]: −14%
- MRCKB percentage of activity [6]: 0%
- HIPK1 percentage of activity [7]: 90%
- SGK percentage of activity [8]: −1%
- MINK percentage of activity [9]: −13%
- EPHA2 percentage of activity [10]: 2%
- CLK3 percentage of activity [11]: 83%
- NEK11 percentage of activity [12]: −2%
- TBK1 percentage of activity [13]: 70%
- CAMK4 percentage of activity [14]: 2%
- TSSK1 percentage of activity [15]: −18%
- PRKG2 percentage of activity [16]: 2%
- MRCKA percentage of activity [17]: −10%
- CHK2 percentage of activity [18]: 5%
- DMPK percentage of activity [19]: 4%
- VRK2 percentage of activity [20]: −3%
- MUSK percentage of activity [21]: −6%
- p38-delta percentage of activity [22]: −1%
- PAK4 percentage of activity [23]: −12%
- NLK percentage of activity [24]: 3%
- PRKCN percentage of activity [25]: 2%
- DAPK1 percentage of activity [26]: 58%
- PRKCE percentage of activity [27]: 0%
- PRKCZ percentage of activity [28]: −9%
- MSK1 percentage of activity [29]: 19%
- FGR percentage of activity [30]: 39%
- FGFR1 (V561M) percentage of activity [31]: 12%
SMILES: C#Cc1cccc(Nc2nc3cc(C(=O)O)ccc3c3cncnc23)c1 [drawing 1135]
